Test: recombinant barcode read abundance after kanamycin selection (control-corrected) (log10(CPM+1)); higher = more efficient recombination; sequences stand for … in AGTGCAGAGAAAATCGGCCAGTTTTCTCTGCCTGCAGTCCGCATGCCGT…AGATTTATGCAGCGGACTGCCTTTCTCCCAAAGTGATAAACCGGACAGTATCATGGACCGGTTTTCCCGGTAATCCGTATTTGCAAGGTTGGTTTCACT; site = the 11-nt target
Method in brief: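 Reported as log10(CPM+1), each value stands for recombination efficiency. That efficiency is the averaged, control-corrected counts per million of barcodes found at recombinant junctions. Cells from a pooled E. coli library pairing targets with IS621 bridge RNA target-binding loops were plated twice on chloramphenicol/ampicillin LB agar (control) and twice on chloramphenicol/ampicillin/kanamycin with 0.1 mM IPTG.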
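Further: IS621 recombinase and bridge RNA in Escherichia coli cells.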

Sequence | recombinant barcode read abundance (log10)
GGGCACTCTTGGGTTCTAACCTGTTGCCT (site GGGCACTCTAC) | 0.0754
GGGCACTCTTGGGTTCTAACCTGTTGCCT (site GGGCACTCTAG) | 1.22
GGGCACTCTTGGGTTCTAACCTGTTGCCT (site GGGCACTCTAT) | 0.585
GGGCACTCTTGGGTTCTAACCTGTTGCTT (site GGGCACTCTAA) | 1.93
GGGCACTCTTGGGTTCTAACCTGTTGCTT (site GGGCACTCTAC) | 0.503
GGGCACTCTTGGGTTCTAACCTGTTGCTT (site GGGCACTCTAG) | 1.35
GGGCACTCTTGGGTTCTAACCTGTTGCTT (site GGGCACTCTAT) | 1.54
GGGCAGGCTTGGGTTCTAACCTGTTGCCT (site ATCGTATCTGC) | 0.189
GGGCAGGCTTGGGTTCTAACCTGTTGCCT (site GGGCAGGCTAG) | 0.969
GGGCCCGCTTGGGTTCTAACCTGTTGCTA (site GGGCCCGCTTA) | 1.68
GGGCCCGCTTGGGTTCTAACCTGTTGCTA (site GGTCCCGCTTG) | 0.0696
GGGCCTACTTGGGTTCTAACCTGTTGCTC (site GGGCCTACTAA) | 0.248
GGGCCTACTTGGGTTCTAACCTGTTGCTC (site GGGCCTACTCA) | 0.0546
GGGCCTACTTGGGTTCTAACCTGTTGCTC (site GGGCCTACTGA) | 0.29
GGGCCTACTTGGGTTCTAACCTGTTGCTC (site GGGCCTACTTA) | 0.171
GGGCCTACTTGGGTTCTAACCTGTTGCTT (site GGGCCTACTAA) | 0.914
GGGCCTACTTGGGTTCTAACCTGTTGCTT (site GGGCCTACTCA) | 0.369
GGGCCTACTTGGGTTCTAACCTGTTGCTT (site GGGCCTACTGA) | 0.255
GGGCCTACTTGGGTTCTAACCTGTTGCTT (site GGGCCTACTTA) | 0.063
GGGCCTTCTTGGGTTCTAACCTGTTGCAT (site GGGACTTCTAT) | 0.24

Sequence | recombinant barcode read abundance (log10)
GGGCCTTCTTGGGTTCTAACCTGTTGCAT (site GGGCCTTCTAT) | 1.07
GGGCCTTCTTGGGTTCTAACCTGTTGCAT (site GGGGCTTCTAT) | 0.31
GGGCCTTCTTGGGTTCTAACCTGTTGCAT (site GGGTCTTCTAT) | 0.0646
GGGGACCCTTGGGTTCTAACCTGTTGCGA (site GGGGACCCTAC) | 1.74
GGGGACCCTTGGGTTCTAACCTGTTGCGA (site GGGGACCCTCC) | 0.877
GGGGACCCTTGGGTTCTAACCTGTTGCGA (site GGGGACCCTGC) | 0.247
GGGGACCCTTGGGTTCTAACCTGTTGCGA (site GGGGACCCTTC) | 2.48
GGGGACCCTTGGGTTCTAACCTGTTGCGC (site GGGGACCCTAC) | 2.24
GGGGACCCTTGGGTTCTAACCTGTTGCGC (site GGGGACCCTCC) | 0.0282
GGGGACCCTTGGGTTCTAACCTGTTGCGC (site GGGGACCCTGC) | 3.3
GGGGACCCTTGGGTTCTAACCTGTTGCGC (site GGGGACCCTTC) | 0.283
GGGGAGCCTTGGGTTCTAACCTGTTGCGG (site GGGGAGCCTCC) | 2.38
GGGGAGCCTTGGGTTCTAACCTGTTGCGG (site GGGGATCCTTC) | 0.335
GGGGCACCTTGGGTTCTAACCTGTTGCGT (site GGGGCACCTAA) | 1.16
GGGGCACCTTGGGTTCTAACCTGTTGCGT (site GGGGCACCTAC) | 3.72
GGGGCACCTTGGGTTCTAACCTGTTGCGT (site GGGGCACCTAG) | 0.492
GGGGCACCTTGGGTTCTAACCTGTTGCGT (site GGGGCACCTAT) | 2.61
GGGGCATCTTGGGTTCTAACCTGTTGCCT (site GGGACATCTAG) | 0.105
GGGGCATCTTGGGTTCTAACCTGTTGCCT (site GGGGCATCTAG) | 0.0863
GGGGCATCTTGGGTTCTAACCTGTTGCTT (site GGGGCATCTAA) | 0.95

Sequence | recombinant barcode read abundance (log10)
GGGGCATCTTGGGTTCTAACCTGTTGCTT (site GGGGCCTCTAA) | 0.0583
GGGGCATCTTGGGTTCTAACCTGTTGCTT (site GGGGCGTCTAA) | 0.0873
GGGGCATCTTGGGTTCTAACCTGTTGCTT (site GGGGCTTCTAA) | 0.0362
GGGGCCTCTTGGGTTCTAACCTGTTGCAG (site GGGGCCTCTCT) | 3.05
GGGGCCTCTTGGGTTCTAACCTGTTGCAG (site GGTGCCTCTAT) | 0.213
GGGGCGACTTGGGTTCTAACCTGTTGCCT (site GGGGCGACTAG) | 0.358
GGGGCGACTTGGGTTCTAACCTGTTGCCT (site GGGGCGCCTAG) | 0.0568
GGGGCGACTTGGGTTCTAACCTGTTGCCT (site GGGGCGGCTAG) | 0.13
GGGGCGACTTGGGTTCTAACCTGTTGCCT (site GGGGCGTCTAG) | 0.0176
GGGGCTTCTTGGGTTCTAACCTGTTGCAT (site GGGACTTCTAT) | 0.158
GGGGCTTCTTGGGTTCTAACCTGTTGCAT (site GGGCCTTCTAT) | 0.0416
GGGGCTTCTTGGGTTCTAACCTGTTGCAT (site GGGGCTTCTAT) | 2.07
GGGGCTTCTTGGGTTCTAACCTGTTGCAT (site GGGTCTTCTAT) | 0.27
GGGGTTCCTTGGGTTCTAACCTGTTGCCT (site GGGGTTCCTAA) | 0.223
GGGGTTCCTTGGGTTCTAACCTGTTGCCT (site GGGGTTCCTAC) | 1.56
GGGGTTCCTTGGGTTCTAACCTGTTGCCT (site GGGGTTCCTAG) | 2.3
GGGGTTCCTTGGGTTCTAACCTGTTGCCT (site GGGGTTCCTAT) | 1.42
GGGGTTCCTTGGGTTCTAACCTGTTGCGT (site GGGGTTCCTAA) | 0.321
GGGGTTCCTTGGGTTCTAACCTGTTGCGT (site GGGGTTCCTAC) | 3.32

Source: the supplement of paper PMC11208160
